Assay results from US20230096028A1, “BICYCLIC HETEROCYCLYL COMPOUNDS AND USES THEREOF” (Revolution Medicines, Inc., priority 2019, published 2023).
Like-named read-outs stand apart in the source and are kept apart here.

How the values were obtained:
[1] = target: T1, SOS1 catalytic domain (residues 564-1049) (Homo sapiens, UniProt Q07889); assay: Mode of Action Assay: inhibition of SOS1 nucleotide exchange activity (SOS1 TR-FRET IC50 Assay)
T1 sequence (Q07889 564-1049): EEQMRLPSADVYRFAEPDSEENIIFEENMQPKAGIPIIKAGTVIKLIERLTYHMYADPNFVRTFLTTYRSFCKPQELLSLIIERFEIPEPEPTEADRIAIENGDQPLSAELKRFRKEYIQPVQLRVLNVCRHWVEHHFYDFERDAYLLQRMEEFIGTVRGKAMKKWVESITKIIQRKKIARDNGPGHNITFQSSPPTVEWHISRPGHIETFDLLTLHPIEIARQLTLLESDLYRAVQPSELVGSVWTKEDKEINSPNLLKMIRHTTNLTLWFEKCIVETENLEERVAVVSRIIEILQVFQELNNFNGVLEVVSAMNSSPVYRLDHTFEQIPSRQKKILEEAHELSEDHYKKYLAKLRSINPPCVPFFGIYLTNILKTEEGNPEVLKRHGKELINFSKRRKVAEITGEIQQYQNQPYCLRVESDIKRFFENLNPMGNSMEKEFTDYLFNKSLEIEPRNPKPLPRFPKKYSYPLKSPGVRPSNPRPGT

[2] = system: PC-9 cells (EGFR Ex19Del); assay: Potency Assay: pERK (SOS1 pERK IC50 Assay, AlphaLISA SureFire Ultra p-ERK1/2); type: cell-based; conditions: Homo sapiens, read-out: SOS1 pERK IC50
Protocol: The purpose of this assay is to measure the ability of test compounds to inhibit SOS1 function in cells. SOS1 activates RAS proteins by catalyzing the conversion of RAS GDP to RAS GTP in response to receptor tyrosine kinase activation. […] The procedure described below measures the level of cellular pERK in response to test compounds in PC-9 cells (EGFR Ex19Del).
PC-9 cells were grown and maintained using media and procedures recommended by the ATCC. On the day prior to compound addition, cells were plated in 384-well cell culture plates (40 μL/well) and grown overnight in a 37° C., 5% CO2 incubator. Test compounds were prepared in 10, 3-fold dilutions in DMSO, with a top concentration of 10 mM. On the day of the assay, 40 nL of test compound was added to each well of cell culture plate using an Echo550 liquid handler (LabCyte). Concentrations of test compound were tested in duplicate with highest test concentration being 10 μM. After compound addition, cells were incubated for 1 hour at 37° C., 5% CO2. Following incubation, culture medium was removed and cells were washed once with phosphate buffered saline.
Cellular pERK level was determined using the AlphaLISA SureFire Ultra p-ERK1/2 Assay Kit (PerkinElmer). Cells were lysed in 25 μL lysis buffer, with shaking at 600 RPM at room temperature for 15 minutes. Lysate (10 μL) was transferred to a 384-well Opti-plate (PerkinElmer) and 5 μL acceptor mix was added. The plate was centrifuged at 1000 RPM for 1 minute, and incubated in the dark for 2 hours. Following this incubation, 5 μL of donor mix was added, the plate was sealed and centrifuged at 1000 RPM for 1 minute, and the mixture was incubated for 2 hours at room temperature. Signal was read on an Envision plate reader (PerkinElmer) using standard AlphaLISA settings. Analysis of raw data was carried out in Excel (Microsoft) and Prism (GraphPad). Signal was plotted vs. the decadal logarithm of compound concentration, and IC50 was determined by fitting a 4-parameter sigmoidal concentration response model.

[3] = PC-9 cells (EGFR Ex19Del), 1 hour incubation, AlphaLISA p-ERK1/2

SMILES | IC50 [1] [nM] | IC50 [2, 3] [nM] | IC50 ([2]; PC-9, 1 h) [nM]
CC(Nc1nc(Cl)nc2c1CN(C(=O)N1CCOCC1)C2)c1cccc2c1C[C@H](CO)C2 (stereo in doubt) [Example 464, (2-chloro-4-(((R)-1-((R)-2-(hydroxymethyl)-2,3-dihydro-1H-inden-4-yl)ethyl)amino)-5,7-dihydro-6H-pyrrolo[3,4-d]pyrimidin-6-yl)(morpholino)methanone] | < 1000 | > 1000 | –
C[C@@H](Nc1nc(Cl)nc2c1CN(C(=O)N1CCOC(c3cccnc3)C1)C2)c1cc(N)cc(C(F)(F)F)c1 (some centres unmarked) [Example 151] | < 1000 | < 1000 | –
C[C@@H](Nc1ncnc2c1CC(N1CCOCC1)C(=O)N2C)c1cc(N)cc(C(F)(F)F)c1 (stereo partly drawn) [Example 502, 4-{[(1R)-1-[3-amino-5-(trifluoromethyl)phenyl]ethyl]amino}-8-methyl-6-(morpholin-4-yl)-5H,6H,7H,8H-pyrido[2,3-d]pyrimidin-7-one] | < 1000 | > 1000 | –
CO[C@H]1C[C@H](C(=O)N2CCc3nc(Cl)nc(N[C@H](C)c4cc(N)cc(C(F)(F)F)c4)c3C2)C1 [Example 190] | > 1000 | > 1000 | –
C[C@@H](Nc1nc(Cl)nc2c1CN(C(=O)C1OCCN(C)C1=O)C2)c1cccc(C(F)F)c1F (some centres unmarked) [Example 301] | < 1000 | < 1000 | –
C[C@@H](Nc1nc(Cl)nc2c1CN(C(=O)C1CNC1)C2)c1cc(N)cc(C(F)(F)F)c1 [Example 268] | < 1000 | > 1000 | –
Cc1c(C(C)Nc2nc(Cl)nc3c2CN(C(=O)N2CCOCC2)C3)cccc1C(F)(F)F (centres unmarked) [Example 499] | > 1000 | < 1000 | –
CC(Nc1nc(Cl)nc2c1CN(C(=O)N1CCOCC1)C2)c1ccc(-c2ccccc2)s1 (centres unmarked) [Example 532, [2-chloro-4-[1-(5-phenyl-2-thienyl)ethylamino]-5,7-dihydropyrrolo[3,4-d]pyrimidin-6-yl]-morpholino-methanone] | > 1000 | – | > 1000
CC(Nc1nc(Cl)nc2c1CN(C(=O)N1CCOCC1)C2)c1cccc(C2(F)CNC2)c1 (centres unmarked) [Example 517, [2-chloro-4-[1-[3-(3-fluoroazetidin-3-yl)phenyl]ethylamino]-5,7-dihydropyrrolo[3,4-d]pyrimidin-6-yl]-morpholino-methanone] | < 1000 | – | > 1000
C[C@@H](Nc1nc(Cl)nc2c1CN(C(=O)N1CCOc3cccnc31)C2)c1cccc(C(F)(F)F)c1 [Example 368] | < 1000 | < 1000 | –
C[C@@H](Nc1nc(Cl)nc2c1C[C@H](N1CCOCC1)CC2)c1cccc(C(F)F)c1F [Example 441] | < 1000 | > 1000 | –
C[C@@H](Nc1nc(Cl)nc2c1CN(C(=O)N1CCOCC1)C2)c1cccc(NC2CC2)c1 [Example 520, 2-chloro-N-[(1R)-1-[3-(cyclopropylamino)phenyl]ethyl]-6-(morpholine-4-carbonyl)-5H,6H,7H-pyrrolo[3,4-d]pyrimidin-4-amine] | > 1000 | – | > 1000
C[C@@H](Nc1nc(Cl)nc2c1CN(C(=O)C1CC13CCOCC3)CC2)c1cc(N)cc(C(F)(F)F)c1 (some centres unmarked) [Example 197] | > 1000 | > 1000 | –
C[C@@H](Nc1nc(Cl)nc2c1CN(C(=O)N1CCNc3ccccc31)C2)c1cccc(C(F)(F)F)c1 [Example 372] | < 1000 | < 1000 | –
C[C@@H](Nc1nc(Cl)nc2c1CN(C(=O)C1CCC1)CC2)c1cc(N)cc(C(F)(F)F)c1 [Example 209] | > 1000 | > 1000 | –
Cc1nc2c(c(N[C@H](C)c3cc(N)cc(C(F)(F)F)c3)n1)CN(CC1CCOC1)CC2 (stereo partly drawn) [Example 56, N-[(1R)-1-[3-amino-5-(trifluoromethyl)phenyl]ethyl]-2-methyl-6-(tetrahydrofuran-3-ylmethyl)-7,8-dihydro-5H-pyrido[4,3-d]pyrimidin-4-amine] | < 1000 | > 1000 | –
CC(C)OC1(C(=O)N2CCc3nc(Cl)nc(N[C@H](C)c4cc(N)cc(C(F)(F)F)c4)c3C2)CCOC1 (some centres unmarked) [Example 195] | > 1000 | > 1000 | –

SMILES | IC50 [1] [nM] | IC50 [2, 3] [nM] | IC50 ([2]; PC-9, 1 h) [nM]
C[C@@H](Nc1nc(Cl)nc2c1CN(C(=O)C1CCCN1c1ncccn1)CC2)c1cc(N)cc(C(F)(F)F)c1 (some centres unmarked) [Example 200] | > 1000 | > 1000 | –
C[C@@H](Nc1nc(Cl)nc2c1CN(C(=O)[C@@]13CCC[C@@H]1OCC3)CC2)c1cc(N)cc(C(F)(F)F)c1 [Example 216] | > 1000 | > 1000 | –
C[C@@H](Nc1nc(O)nc2c1CN(C(=O)N1CCOCC1)C2)c1cc(N)cc(C(F)(F)F)c1 [Example 55] | < 1000 | > 1000 | –
COc1cccc(C(=O)N2CCc3nc(Cl)nc(N[C@H](C)c4cc(N)cc(C(F)(F)F)c4)c3C2)n1 [Example 242] | < 1000 | > 1000 | –
CC(Nc1nc(Cl)nc2c1CN(C(=O)N1CCOCC1)C2)c1cccc(CCO)c1 (centres unmarked) [Example 501, 2-[3-(1-{[2-chloro-6-(morpholine-4-carbonyl)-5H,6H,7H-pyrrolo[3,4-d]pyrimidin-4-yl]amino}ethyl)phenyl]ethan-1-ol] | < 1000 | > 1000 | –
C[C@@H](Nc1nc(Cl)nc2c1CN(C(=O)c1ccc3c(n1)OCCO3)CC2)c1cc(N)cc(C(F)(F)F)c1 [Example 249] | > 1000 | > 1000 | –
COCC1(C(=O)N2CCc3nc(Cl)nc(N[C@H](C)c4cc(N)cc(C(F)(F)F)c4)c3C2)CC1 [Example 213] | > 1000 | > 1000 | –
CC(Nc1nc(Cl)nc2c1CN(C(=O)N1CCOCC1)C2)c1cccc(S(C)(=O)=O)c1 (centres unmarked) [Example 497] | > 1000 | > 1000 | –
C[C@@H](Nc1nc(Cl)nc2c1CN(C(=O)C13CCC(CC1)O3)CC2)c1cc(N)cc(C(F)(F)F)c1 [Example 218] | > 1000 | > 1000 | –
C[C@@H](Nc1nc(Cl)nc2c1CN(C(=O)C1CCN(C)CC1)C2)c1cc(N)cc(C(F)(F)F)c1 [Example 58, [4-[[(1R)-1-[3-amino-5-(trifluoromethyl)phenyl]ethyl]amino]-2-chloro-5,7-dihydropyrrolo[3,4-d]pyrimidin-6-yl]-(1-methyl-4-piperidyl)methanone] | < 1000 | – | < 1000
C[C@@H](Nc1nc(Cl)nc2c1CN(C(=O)c1cncc(N3CCOCC3)n1)CC2)c1cc(N)cc(C(F)(F)F)c1 [Example 243] | > 1000 | > 1000 | –
C[C@@H](Nc1nc(Cl)nc2c1CN(C(=O)c1cc(N3CCOCC3)nc(N3CCOCC3)n1)CC2)c1cc(N)cc(C(F)(F)F)c1 [Example 230] | > 1000 | > 1000 | –
C[C@@H](Nc1nc(Cl)nc2c1CN(C(=O)N1CCc3ncccc31)C2)c1cccc(C(F)(F)F)c1 [Example 371] | < 1000 | < 1000 | –
COC1COCCC1CC(=O)N1Cc2nc(Cl)nc(N[C@H](C)c3cc(N)cc(C(F)(F)F)c3)c2C1 (some centres unmarked) [Example 258] | < 1000 | < 1000 | –
C[C@@H](Nc1nc(Cl)nc2c1CN(C(=O)N1CCOCC1)C2)c1ccc2cc[nH]c2c1 [Example 495] | > 1000 | > 1000 | –
CC(CO)c1cccc(C(C)Nc2nc(Cl)nc3c2CN(C(=O)N2CCOCC2)C3)c1 (centres unmarked) [Example 500, 2-[3-(1-{[2-Chloro-6-(morpholine-4-carbonyl)-5H,6H,7H-pyrrolo[3,4-d]pyrimidin-4-yl]amino}ethyl)phenyl]propan-1-ol] | < 1000 | > 1000 | –
COCC(F)(F)c1cccc([C@@H](C)Nc2nc(Cl)nc3c2CN(C(=O)C2(OC)CCOCC2)C3)c1 [Example 536, [2-chloro-4-[[(1R)-1-[3-(1,1-difluoro-2-methoxy-ethyl)phenyl]ethyl]amino]-5,7-dihydropyrrolo[3,4-d]pyrimidin-6-yl]-(4-methoxytetrahydropyran-4-yl)methanone] | < 1000 | < 1000 | –
